# Experimental data from PubChem BioAssay (NCI).
#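 Dose response: 5 concentrations. Exposure: 48 h. Format: 96-well plates. Endpoint: linear interpolation; highest concentration if not reached. GI50: concentration for 50% inhibition of growth. At the TGI there is no net growth.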
# Tested on: SF-539 CNS
# Experiment: NCI-60 cell line screen, 48 h
Compound,TGI [µM],GI50 [µM]
Clc1cccc(-c2sc(-c3cccs3)cc2Cc2cccs2)c1,> 10,
c1ccc(-c2c(-c3ccccc3)[n+](Cc3ccc4ccccc4c3)c(-c3ccc(-c4nc5ccccc5s4)cc3)n2Cc2ccc3ccccc3c2)cc1,1.24,0.305
CC1CC(N2CCOCC2)=Nc2ccccc2N1C (stereo unspecified),> 100,
CC(C)C(Br)CCC1=CCC(Br)(Br)C1 (stereo unspecified),33.7,
Cc1c2cccc-2c2cc(O)c3ccccc3c2n1-c1ccc(N(C)C)cc1,27.9,
Cc1c(N2CCOCC2)nc2ccc(Cl)cc2c1-c1ccccc1,> 100,
Cc1cc([N+](=O)[O-])c(C)c2c1[nH]c1ccc(Cl)cc12,> 100,
NS(=O)(=O)c1nnc(NC(=O)N(c2ccccc2)c2ccccc2)s1,34.7,
COCOc1ccc(C(=O)Oc2cccc3c2OC(C)(C)O3)c(OCOC)c1,> 100,
COc1cc2nc(-c3ccc(Cl)cc3)cc(OCCCN3CCOCC3)c2cc1OC,> 100,2.99
COC(=O)/C=C(\C)CC/C=C(\C)CCC1OC1(C)C (stereo unspecified),24.1,
COc1ccc(CNc2cnc3ccc(N)cc3n2)cc1,> 100,
CCOC(=O)C1C(c2ccc(Cl)cc2Cl)NC(c2ccc(C)cc2)C(C(=O)OC)S1(=O)=O (stereo unspecified),> 100,
COc1cccc(C2c3cc4c(cc3OC(O)C2C)OCO4)c1OC (stereo unspecified),26.8,
O=C1C=CC2(O[C@H](c3ccccc3)[C@@H](c3ccccc3)O2)[C@H](Sc2ccccc2O)C1,1.7,
CN(/N=C1\C(=O)Nc2ccccc21)c1ccccc1,> 100,

# Tested on: SN12C renal
# Experiment: NCI-60 cell line screen, 48 h
Compound,TGI [µM],GI50 [µM]
COc1ccc2ccc3oc(=O)c(C)cc3c2c1,> 100,
O=c1c(F)cn2c(=O)n1CCCCCCCn1c(=O)c(F)cn(c1=O)CCCCCCC2,> 100,
Cc1nnc2n(c1=O)CCCN2C,> 100,
O=C(ON=C1c2ccccc2C(Br)C(Br)c2ccccc21)c1ccccc1 (stereo unspecified),42.9,
Nc1ncnc2c1nnn2C1C=CC(CP(=O)(O)O)C1 (stereo unspecified),> 100,
CN(C)CCn1c(=O)c2ccc(NCCCN(C)CCCNc3ccc4c(=O)n(CCN(C)C)c(=O)n5c6ccc(O)cc6c(=O)c3c45)c3c(=O)c4cc(O)ccc4n(c1=O)c23,0.553,
CC(=O)c1ccc(Oc2c3ccccc3nc3ccccc23)cc1,16,
Cn1c2ccccc2n2c3ncccc3c(=O)c(C#N)c12,> 100,
CCCCCCCCCCCCCCCCCCOc1ccccc1CC(=O)NCC[N+]1(C)CCOCC1,6.21,2.26
S=C(Cc1ccc2c(c1)Sc1ccccc1O2)N1CCOCC1,> 100,
C[n+]1cc2cc(O)c(O)cc2c2ccc3cc(O)c(O)cc3c21,26,
COc1ccc(N=Nc2c(-c3c(OC)cc4occc4c3OC)[nH]c(=O)c(C#N)c2C)cc1,> 100,
O=C(/C=C/c1ccc(Cl)cc1)Oc1ccc(C=C2CCC/C(=C\c3ccc(OC(=O)/C=C/c4ccc(Cl)cc4)cc3)C2=O)cc1,> 100,
c1ccc2c(c1)SCCCS2,> 100,
COc1ccc2c(c1)c1c(n2CCN2CCCCC2)-c2cccc(OC)c2CC1,36.8,
COc1ccc2nc(NC(=O)/C(C#N)=C/c3ccccc3)sc2c1,> 100,

Compound,TGI [µM],GI50 [µM]
Cc1nc2ccc(Cl)cc2c(-n2ccnc2)c1CCn1ccnc1,> 100,
Cc1c(C)n(-c2ccccc2)c2nc(S(C)=O)nc(S(C)=O)c12 (stereo unspecified),24.6,
CC1(C)CC(=O)C2=C(C1)C(c1ccccc1Cl)C1C(=O)CC(C)(C)CC1(O)O2 (stereo unspecified),> 100,
Cn1nc(-c2ccc(S(=O)(=O)/N=C(\NN)Nc3ccc(Cl)cc3)s2)cc1C(F)(F)F,31.4,
CCc1c(O)cc(=O)oc1-c1ccc(OC)c(OC)c1,> 100,
Cc1ccc2c(c1C)C(=O)C1(Cc3cc4c(cc3C1=O)CCC4)C2 (stereo unspecified),> 100,
CCCCI(O)OS(=O)(=O)c1ccc(C)cc1,> 100,
C[C@@H]1CC[C@@]2(C)C(C(=O)O)=CCCC2[C@@]1(C)CC(=O)c1ccoc1 (stereo partly specified),> 25,
O=C(CCc1cc(O)cc(O)c1)NCCc1cc(OCc2ccccc2)cc(OCc2ccccc2)c1,35.9,
Clc1cccc(-c2sc(-c3cccs3)cc2Cc2cccs2)c1,> 10,
c1ccc(-c2c(-c3ccccc3)[n+](Cc3ccc4ccccc4c3)c(-c3ccc(-c4nc5ccccc5s4)cc3)n2Cc2ccc3ccccc3c2)cc1,1.04,0.218
O=c1c2c3c(sc2[nH]c(=S)n1-c1ccccc1)CCCc1ccc([N+](=O)[O-])cc1-3,> 100,
CC1CC(N2CCOCC2)=Nc2ccccc2N1C (stereo unspecified),> 100,
CC(C)C(Br)CCC1=CCC(Br)(Br)C1 (stereo unspecified),15.2,
Cc1c2cccc-2c2cc(O)c3ccccc3c2n1-c1ccc(N(C)C)cc1,33.9,
